The values below come from patent publication US20080262097A1, “Formulations” (priority 2005, published 2008).

The test system of assay [1] is Staphylococcus aureus ATCC 12600. Briefly: MBC assay. Format: cell-based. The note with it: ATCC12600. As to the method:
(§1) The staphylococci and enterococci were cultured and maintained on Mueller-Hinton Medium (agar and broth) at pH 7.2; they were incubated aerobically at 37° C. for 24 hours.
(§2) This assay, normally carried out after an MIC assay, determines the minimum concentration of a compound that is lethal to the micro-organism being tested.
(§3) These samples were then individually sub-cultured on non-selective agar medium, under the incubation conditions described above. Following incubation they were examined visually for bacterial growth.

For another assay, the system named is S. aureus CPHL VISA Mu3. Nature of the assay: MBC assay. The note with it: Staphylococcus aureus. The format is cell-based. As to the method: as §1, §2, §3
Assay [2] deals with Staphylococcus hominis ATCC 27844. Briefly: MBC assay. The note with it: ATCC27844. Format: cell-based. As to the method: as §1, §2, §3
Assay [3] deals with S. aureus ATCC 29213. Nature of the assay: MIC assay. The format is cell-based, Staphylococcus aureus. As to the method: 1. Staphylococcus aureus—the principal staphylococcal test micro-organism used in these studies was Staphylococcus aureus ATCC 29213. This strain is the one recommended for QC/QA purposes in Minimum Inhibitory Concentration (MIC) assays by the US Clinical and Laboratory Standards Institute (formerly the NCCLS), an FDA-recognised body. […] The staphylococci and enterococci were cultured and maintained on Mueller-Hinton Medium (agar and broth) at pH 7.2; they were incubated aerobically at 37° C. for 24 hours. This is a standard international method for quantitatively assessing the antimicrobial activity of a compound in a liquid medium. The method used a 96-well microtitre plate, capable of holding about 200 μl of liquid per well. […] The culture media were as described above for the relevant test organisms. The wells were inoculated with a liquid suspension of freshly grown micro-organism and incubated under the conditions described above. After incubation, the microtitre plate was examined visually (with the aid of a light box) for cell pellets in and/or opaque wells, which would indicate microbial growth. The MIC value was recorded as the lowest concentration of test compound required to inhibit microbial growth, ie, the lowest concentration for which the liquid in the well remained clear. The assays were conducted in duplicate and included both negative (culture medium only) and positive (culture medium, diluting solvent and inoculum) controls.

Assay [4] deals with P. acnes NCTC 737. Nature of the assay: MIC assay. Format: cell-based, Propionibacterium acnes. As to the method:
(§4) 2. Propionibacterium spp.—the principal propionibacterial strain used in these studies was Propionibacterium acnes NCTC 737. This is the type strain of the genus; it is fully susceptible to antibiotics.
(§5) The Propionibacterium spp organisms were cultured and maintained on Wilkins-Chalgren Anaerobe Medium (agar and broth) at pH 6.0; cultures were incubated anaerobically at 37° C. for 72 hours.
This is a standard international method for quantitatively assessing the antimicrobial activity of a compound in a liquid medium. The method used a 96-well microtitre plate, capable of holding about 200 μl of liquid per well. […] The culture media were as described above for the relevant test organisms.
The wells were inoculated with a liquid suspension of freshly grown micro-organism and incubated under the conditions described above. After incubation, the microtitre plate was examined visually (with the aid of a light box) for cell pellets in and/or opaque wells, which would indicate microbial growth. The MIC value was recorded as the lowest concentration of test compound required to inhibit microbial growth, ie, the lowest concentration for which the liquid in the well remained clear.
The assays were conducted in duplicate and included both negative (culture medium only) and positive (culture medium, diluting solvent and inoculum) controls.

Assay [5] deals with S. aureus ATCC 29213. Briefly: Disc diffusion assay (DDA). The format is cell-based, Staphylococcus aureus. The source says:
1. Staphylococcus aureus—the principal staphylococcal test micro-organism used in these studies was Staphylococcus aureus ATCC 29213. This strain is the one recommended for QC/QA purposes in Minimum Inhibitory Concentration (MIC) assays by the US Clinical and Laboratory Standards Institute (formerly the NCCLS), an FDA-recognised body. S. aureus ATCC 29213 is susceptible to beta-lactam antibiotics such as methicillin and to many other antibiotics in clinical use worldwide today. The staphylococci and enterococci were cultured and maintained on Mueller-Hinton Medium (agar and broth) at pH 7.2; they were incubated aerobically at 37° C. for 24 hours. A sterile paper disc was impregnated with a sample of the test compound and a minimum of 30 minutes allowed for the solvents to evaporate as far as possible. The disc was then placed on an agar plate onto which the test micro-organism had been inoculated. The plate was then incubated under the conditions described above, following which it was examined visually for signs of bacterial growth. If the test compound had antimicrobial activity, a circular zone of no growth would be obtained around the disc. The diameter of this zone of “inhibition” was measured using a ProtoCOL™ automated zone sizer (Synbiosis, Cambridge, UK). In general, a greater diameter and/or area of the zone of inhibition indicates a greater antimicrobial activity in the relevant test compound, although other factors such as test compound mobility through the agar gel may also influence the result. […] The exceptions were the thymoquinone assays, in which only 50 μg of the benzoquinone was used.
(Agar diffusion results depend on both activity and mobility in agar.)

Assay [6] relates to P. acnes NCTC 737. Briefly: MBC assay. Format: cell-based, Propionibacterium acnes. As to the method: as §4, §5, §2, §3
For assay [7], the system named is S. aureus ATCC 29213. Briefly: Synergy disc diffusion assay (SDDA). The format is cell-based, Staphylococcus aureus. The settings on record: for SDDA area increase / SDDA increase: quinone + BP; for SDDA area increase: over larger single-compound zone; for SDDA increase: over larger single-compound zone diameter; for SDDA with BP: quinone combined with BP on one disc, 200 μg of each (thymoquinone 50 μg). From the text: 1. Staphylococcus aureus—the principal staphylococcal test micro-organism used in these studies was Staphylococcus aureus ATCC 29213. This strain is the one recommended for QC/QA purposes in Minimum Inhibitory Concentration (MIC) assays by the US Clinical and Laboratory Standards Institute (formerly the NCCLS), an FDA-recognised body. S. aureus ATCC 29213 is susceptible to beta-lactam antibiotics such as methicillin and to many other antibiotics in clinical use worldwide today. The staphylococci and enterococci were cultured and maintained on Mueller-Hinton Medium (agar and broth) at pH 7.2; they were incubated aerobically at 37° C. for 24 hours. This is a variation on the DDA method, in which two compounds are tested together for their combined antimicrobial activity. It provides a qualitative indication as to whether the compounds are likely to interact synergistically. Two test compounds A and B were placed on a single paper disc and the above described DDA procedure repeated. An increase in diameter of the zone of inhibition, compared to the greater of the zone diameters for the two compounds individually, was taken to indicate potential antimicrobial synergy. […] The larger the increase in zone size, the greater the likelihood of a synergistic interaction between the two test compounds. Each of the quinones was then subjected, in combination with BP, to the SDDA assay described above. In each case, increases in zone diameter (mm) and area (%) were measured with respect to those observed for the compound showing the larger zone diameters during the previous disc diffusion assays on the individual compounds. […] The exceptions were the thymoquinone assays, in which only 50 μg of the benzoquinone was used.

[8] abbreviates: S. aureus ATCC 29213, Table 5 (Example 5).
The mark [9] stands for this setting: Staphylococcus aureus, ATCC29213, S. aureus ATCC 29213, Table 1 (Example 1), read-out: MIC.
Setting [10] is: Cutibacterium acnes, NCTC737, P. acnes NCTC 737 (resistance None), Table 9 (Example 8).
Setting [11] is: Cutibacterium acnes, NCTC737, P. acnes NCTC 737, Table 7 (Example 6).
The mark [12] stands for this setting: Table 1, zone diameter, 200 μg per disc (thymoquinone 50 μg).
Where [13] appears, read: Table 6 (Example 5), zone diameter, 200 μg per disc.
Where [14] appears, read: Cutibacterium acnes, NCTC737, P. acnes NCTC 737, Table 7 (Example 6), read-out: MIC.
Setting [15] is: Cutibacterium acnes, NCTC737, P. acnes NCTC 737, Table 7 (Example 6), read-out: MBC.
The mark [16] stands for this setting: S. aureus ATCC 29213, Table 1 (Example 1).
Setting [17] is: P. acnes NCTC 737, Table 7 (Example 6).

In brackets after ≈: the same amount, converted by molar mass. Read-outs that look alike come from different tables or passages of the source. Where only a bound is given, the exact number is not on record here.

What is called MBC is the lowest tested concentration that kills the bacteria rather than only halting them. A word on the MIC: it is the least concentration at which growth counts as inhibited. On to `O=C(OOC(=O)c1ccccc1)c1ccccc1` [benzoyl peroxide], for which the MBC was 250 µg/mL (≈ 1030 µM) in assay [1] (Staphylococcus aureus ATCC 12600, read-out: MBC); 125 to 250 µg/mL (≈ 516 to 1030 µM) against S. aureus CPHL VISA Mu3; 250 µg/mL (≈ 1030 µM) in assay [2]; 31.2 µg/mL (≈ 129 µM) against P. acnes NCTC 737 [6] (setting [10]); 62.5 µg/mL (≈ 258 µM) with P. acnes NCTC 737 [6] (setting [11]). In addition, the MIC against S. aureus ATCC 29213 [3] (setting [8]) was 250 µg/mL (≈ 1030 µM); in the assay with S. aureus ATCC 29213 [3] (setting [9]), 250 µg/mL (≈ 1030 µM); with P. acnes NCTC 737 [4] (setting [10]), 15.6 µg/mL (≈ 64.4 µM); against P. acnes NCTC 737 [4] (setting [11]), 31.2 µg/mL (≈ 129 µM). The DDA in the assay with S. aureus ATCC 29213 [5] (setting [12]) is 11.03 mm; in the assay on S. aureus ATCC 29213 [5] (setting [13]), 9.61 mm.
Take `CC(C)(C)c1cc(O)ccc1O` [TBHQ, t-butyl hydroquinone]: the MBC in assay [1] (Staphylococcus aureus) turned out to be 7.8 µg/mL (≈ 46.9 µM); in the assay on S. aureus CPHL VISA Mu3 it was 7.8 µg/mL (≈ 46.9 µM); in assay [2] it was 3.9 µg/mL (≈ 23.5 µM); in the assay on P. acnes NCTC 737 [6] (setting [10]), 15.6 µg/mL (≈ 93.9 µM); in the assay with P. acnes NCTC 737 [6] (setting [11]), 15.6 µg/mL (≈ 93.9 µM). In addition, the MIC against S. aureus ATCC 29213 [3] (setting [8]) stood at 7.8 µg/mL (≈ 46.9 µM); with S. aureus ATCC 29213 [3] (Staphylococcus aureus, ATCC29213), 7.8 µg/mL (≈ 46.9 µM); in the assay on P. acnes NCTC 737 [4] (setting [10]) it was 7.8 µg/mL (≈ 46.9 µM); with P. acnes NCTC 737 [4] (setting [11]), 7.8 µg/mL (≈ 46.9 µM). The DDA turned out to be 41.77 mm in the assay on S. aureus ATCC 29213 [5] (setting [12]) and 46.79 mm with S. aureus ATCC 29213 [5] (setting [13]). The SDDA area increase in the assay with S. aureus ATCC 29213 [7] is recorded as 169.30%. Also, in the assay with S. aureus ATCC 29213 [7], the SDDA increase was determined as 26.77 mm. Further, the “SDDA with BP” value in the assay with S. aureus ATCC 29213 [7] was 68.54 mm.
As for `CC1=CC(=O)C(C(C)C)=CC1=O` [thymoquinone, 2-iso-propyl-5-methyl-p-benzoquinone], the MIC in the assay with S. aureus ATCC 29213 [3] (setting [9]) was determined as 7.8 µg/mL (≈ 47.5 µM). Also, in the assay with P. acnes NCTC 737 [4] (setting [14]), the MIC was determined as 15.6 µg/mL (≈ 95 µM). Also, in the assay with S. aureus ATCC 29213 [5] (setting [12]), the DDA amounted to 15.64 mm. Further, in the assay with S. aureus ATCC 29213 [7], the SDDA area increase is on record as 120.91%, the SDDA increase was determined as 7.60 mm and the “SDDA with BP” value is recorded as 23.24 mm. The minimum bactericidal concentration (MBC) with P. acnes NCTC 737 [6] (setting [15]) was determined as 31.2 µg/mL (≈ 190 µM).
Take `O=C1C=CC(=O)C=C1` [p-benzoquinone]: in the assay on P. acnes NCTC 737 [4] (setting [14]), the MIC is 62.5 µg/mL (≈ 578 µM). Further, the DDA with S. aureus ATCC 29213 [5] (setting [12]) is recorded as 29.34 mm. Moreover, in the assay with S. aureus ATCC 29213 [7], the SDDA area increase is recorded as 37.25%, the SDDA increase is 5.03 mm and the “SDDA with BP” value amounted to 34.38 mm. Moreover, in the assay on P. acnes NCTC 737 [6] (setting [15]), the MBC is 62.5 µg/mL (≈ 578 µM).
Molecule `Oc1ccc(O)cc1` [p-hydroquinone] showed an MIC against S. aureus ATCC 29213 [3] (setting [16]) of 62.5 µg/mL (≈ 568 µM). Further, in the assay on P. acnes NCTC 737 [4] (setting [17]), the MIC is over 250 µg/mL. The molecule also gave a DDA in the assay with S. aureus ATCC 29213 [5] (setting [12]) of 18.94 mm. For the same molecule, in the assay on S. aureus ATCC 29213 [7], the SDDA area increase was 210.15%, the SDDA increase is 14.42 mm and the “SDDA with BP” value came to 33.36 mm. The molecule further came in with an MBC with P. acnes NCTC 737 [6] (setting [17]) of over 250 µg/mL.
In the assay on S. aureus ATCC 29213 [3] (setting [16]), `Cc1c(O)ccc(O)c1C` [2,3-dimethyl-p-hydroquinone] returned an MIC of 7.8 µg/mL (≈ 56.5 µM). Moreover, in the assay on P. acnes NCTC 737 [4] (setting [17]), the MIC came out at 7.8 µg/mL (≈ 56.5 µM). This molecule also gave a DDA in the assay on S. aureus ATCC 29213 [5] (setting [12]) of 33.41 mm. In the assay on S. aureus ATCC 29213 [7], the SDDA area increase amounted to 52.39%, the SDDA increase is 7.83 mm and the “SDDA with BP” value was 41.25 mm. This molecule had an MBC in the assay with P. acnes NCTC 737 [6] (setting [17]) of 15.6 µg/mL (≈ 113 µM).
`CCc1cc(O)ccc1O` [2-ethyl-p-hydroquinone] had an MIC in the assay on S. aureus ATCC 29213 [3] (setting [16]) of 7.8 µg/mL (≈ 56.5 µM). Also, the MIC against P. acnes NCTC 737 [4] (setting [17]) came out at 7.8 µg/mL (≈ 56.5 µM). This molecule also came in with a DDA in the assay on S. aureus ATCC 29213 [5] (setting [12]) of 21.06 mm. In the assay with S. aureus ATCC 29213 [7], the SDDA area increase was 105.49%, the SDDA increase is recorded as 9.13 mm and the “SDDA with BP” value is recorded as 30.19 mm. For the same molecule, the minimum bactericidal concentration (MBC) in the assay with P. acnes NCTC 737 [6] (setting [17]) worked out at 31.25 µg/mL (≈ 226 µM).
